# Laboratory results: a melting point compilation (Tetko et al.; mined from patent text by program, amines drawn as free bases though some values may be those of a salt)
row,Structure (SMILES),melting point [°C]
1,NS(=O)(=O)c1cc(C(=O)O)cc([N+](=O)[O-])c1Oc1cccc(Cl)c1,230 to 232
2,Cc1ccc2c(c1Cl)S(=O)(=O)NCN2C1CC1,230 to 232
3,CCCc1nc2c(C)cc(C)nc2n1C1CCc2cc(-c3ccccc3-c3nnn[nH]3)ccc21 (stereo unspecified),173
4,COc1cc2c(cc1OC)OC(C#N)C2 (stereo unspecified),162
5,N#Cc1ccc(CCN2CCC(NC(=O)C34CC5CC(CC(C5)C3)C4)C2)cc1 (stereo unspecified),104 to 105
6,Cc1cc(N)cc(C)c1Oc1ccc(Cl)c2c1CCCC2,126 to 135
7,C=CCONC(=O)Cc1ccc(OC)cc1,100 to 101
8,CCOC(=O)c1c(C)[nH]c(CC)c1C,108 to 109
9,COc1cc(Cc2cnc(N)nc2N)c(Cc2cnc(N)nc2N)cc1OC,280
10,O=C(COCC(=O)Nc1ccc([N+](=O)[O-])c(C(F)(F)F)c1)Nc1ccc([N+](=O)[O-])c(C(F)(F)F)c1,137 to 138
11,O=c1c2c(c1=O)N(CCP(=O)(O)O)CC(O)CN2 (stereo unspecified),215 to 218
12,CS(=O)(=O)c1ccc(-c2oc3ccc(F)cc3c(=O)c2-c2cccnc2)cc1,177 to 178
13,CCC(=O)c1cnc(C(=O)CC)cn1,112
14,O=[N+]([O-])c1c(Cl)cccc1-c1nc2ccccc2n1CC(O)CO (stereo unspecified),188 to 189
15,COc1ccc(C#N)c(F)c1OC(C)=O,90 to 91
16,CSc1c(O)ccc2c1[nH]c1ccccc12,137 to 138
17,CCCCCCOc1cccc(C[C@H](NC(C)=O)[C@H](O)CNCc2cccc(CC)c2)c1,102 to 105
18,CN1C(=N)CN(c2ccccc2)C1=O,156 to 158
19,CC12C=CC(=O)C=C1CCC1C3CC(OCCOC4CCCCO4)C(O)(C(=O)CCl)C3(C)CC(O)C12F (stereo unspecified),168 to 170

row,Structure (SMILES),melting point [°C]
1,COc1cccc2c1C1CN(C)CCN1c1ccccc1C2O (stereo unspecified),217
2,Nc1nc(F)cc(OCc2ccccc2)n1,96 to 98
3,CC(C)(C)c1cc(SC(=S)NN)cc(C(C)(C)C)c1O,146
4,CC(C=CC=C(C)CO)=CC=CC=C(C)C1OCC(C)(C)CO1,136 to 137
5,[N-]=[N+]=NS(=O)(=O)c1ccccc1[N+](=O)[O-],73 to 74
6,CCOC(=O)c1oc2ccc(Cl)cc2c1O,100 to 102
7,C[C@@H]1N=C(c2ccccc2Cl)c2c(ccc(N)c2Br)N(C)C1=O,243
8,CS(=O)c1c(C#N)nn(-c2c(Cl)cc(C(F)(F)F)cc2Cl)c1NCc1cnccn1 (stereo unspecified),198
9,COC1(C)OC(=O)c2c(O)cccc21 (stereo unspecified),101 to 104
10,CCCCC(=N)NC(=O)Nc1ccc(Cl)cc1,164 to 169
11,OC1CSC(Oc2cccc(-c3ccc(F)cn3)c2)C(O)C1O (stereo unspecified),168 to 201
12,CC(C)(C)OC(=O)Nc1ccc(C#Cc2ccc(F)cc2F)cc1[N+](=O)[O-],134 to 136
13,CCCCCCCCCCCCCCCCCCN(C)C(=O)c1ccc(Cl)c([N+](=O)[O-])c1,55 to 56
14,CCN(CC)Cc1nc(-c2ncn3c2[C@@H]2CCCN2C(=O)c2c(Cl)cccc2-3)no1,151 to 153
15,O=[N+]([O-])c1sc2ccc(Cl)cc2c1Br,176 to 178
16,CCOC(=O)Cn1c(=O)c2cc(Cl)ccc2n(Cc2ccc(Cl)cc2)c1=O,137 to 138
17,CCc1c(C)c(NC(=O)NCCO)c(C)c2c1OCC2c1ccc(C(C)C)cc1 (stereo unspecified),147 to 148
18,CCN1CC(SCC2CC2)(C(F)(F)F)c2cc(Cl)ccc2NC1=O (stereo unspecified),152 to 156
19,CCOC(=O)c1cnc2c(cnn2CC)c1NN=C(C)CC#N,190 to 191

# Results, then the molecule that gave them:
row,melting point [°C],Structure (SMILES)
1,170 to 173,COC(=O)c1c(O)c2cc(Cl)ccc2n1-c1ccccc1
2,114 to 115,O=C(NO)c1ccc(OC(=O)C2(c3ccc(OC(=O)c4ccccc4)cc3)CCCCC2)cc1
3,241 to 242,O=C(O)c1ccccc1Sc1cc(Cl)ccc1C(=O)O
4,120,COC(=O)c1cccc(Nc2ccc(OC)cc2)c1
5,115 to 116,CCOC(=O)/C(C)=C(/C)c1cccc(OCc2nc(-c3ccc(C(F)(F)F)cc3)oc2C)c1
6,108 to 110,COC(=O)C1=C(C)NC(C)=C(C(=O)OCC2CCCO2)C1c1cccc(C(F)(F)F)c1 (stereo unspecified)
7,90 to 93,CN1CCC(OC(=O)Cc2cnn(-c3ccccc3)c2-c2ccc(Cl)cc2)CC1
8,143 to 145,CCOC(=O)c1cc2cc(-c3ccccc3OC)ccc2nn1
9,231 to 233,COc1ccc2nccc(NC(=O)N3CCN(CC(O)c4ccc5c(c4)NC(=O)CO5)CC3)c2n1 (stereo unspecified)
10,103 to 105,Cc1c(-c2ccccc2)oc2c(C(=O)OCC3CO3)cccc2c1=O (stereo unspecified)
11,132 to 134,Cc1ccc(NS(=O)(=O)Cc2ccccc2)c(OCc2ccccc2)c1CC(=O)O
12,94 to 95,CCCOc1cc(CCCOc2nn(Cc3ccccc3)cc2CC(=O)O)n(Cc2ccc(F)cc2F)n1
13,196 to 198,O=CN(c1cc(Cl)cc(Cl)c1)c1cc(S(=O)(=O)NC(c2ccccc2)c2ccccc2)ccc1Cl
14,184,COc1ccc(C(=O)Nc2cc(NC(=O)c3cccc(N(C)C)c3)ccc2Br)cc1OC
15,179 to 180,O=C(NC(=O)c1ccccc1)NC1CCN(Cc2ccccc2)CC1
16,178,CN(C)C(=O)c1c(CNS(=O)(=O)c2cccc(Cl)c2)nn(-c2ccc(Cl)cc2Cl)c1-c1ccc(Cl)cc1
17,203 to 205,COC(=O)C1=C(C)NC(C)=C(NC(=O)Nc2ccccc2)C1c1ccccc1Cl (stereo unspecified)

row,melting point [°C],Structure (SMILES)
1,105,COCCNc1ccc(S(=O)(=O)Oc2ccc(N)c([N+](=O)[O-])c2)cc1
2,208 to 210,N[C@H](Cc1ccc(OC(=O)OCc2ccccc2)cc1)C(=O)O
3,178,NC(=O)C(Nc1ccc(Cl)cc1)c1c(Cl)cccc1Cl (stereo unspecified)
4,197 to 202,O=C1NC(=O)C(Cc2ccc(OCc3cn4ccccc4n3)cc2)S1 (stereo unspecified)
5,90 to 92,COc1c(CC(=O)O)cccc1Oc1ccccc1C
6,208,CCCCc1nc(S(C)=O)c(C(=O)O)n1Cc1ccc(-c2ccccc2C(=O)O)cc1 (stereo unspecified)
7,236 to 238,O=C(O)Cc1c(C(=O)O)c2cc(Oc3ccc(C(F)(F)F)cc3)ccc2n1-c1cccc(Cl)c1
8,302,O=C(O)c1ccc(-c2nn(Cc3cccc(Cl)c3)c(=S)[nH]2)cc1
9,117 to 118,CS(=O)(=O)c1ccc(-c2sc(Cc3ccccc3)nc2-c2ccc(F)cc2)cc1
10,137 to 140,Nc1cccnc1N1CCN(C(=O)c2ccc(C(=O)O)cn2)CC1
11,115 to 117,CCOc1ccc2c(c1)CCC(Oc1ncnc3ccccc13)C2 (stereo unspecified)
12,232 to 234,Oc1ccc(-c2nc(-c3ccc(Cl)cc3)nc(-c3ccc(O)cc3O)n2)c(O)c1
13,170 to 171,CCC1(CO)CS(=O)(=O)c2ccccc2C(c2ccccc2)=N1 (stereo unspecified)
14,177,CCOc1ccc(C=Cc2ccc(OC(F)F)cc2)cc1
15,144 to 145,COc1ccc(-c2nc(SC(F)(F)CF)[nH]c2-c2ccc(OC)cc2)cc1
16,79.5 to 81,CC1(C)C=C(c2ccccc2)c2ccccc2N1
